These results are taken from paper PMC4809600, “The Influence of Chronic Wound Extracts on Inflammatory Cytokine and Histatin Stability” (PLoS ONE, 2016).

This assay has as its system dermal fibroblasts. Nature of the assay: Fibroblast wound healing scratch assay (migration). It counts as cell-based, human. As to conditions: serum-free medium, histatins 5 μM, rhIL-6 125 ng/ml, rhCXCL8 250 ng/ml, (E0-E96)/(U0-U96), unexposed = 1; for Migration of dermal fibroblasts in scratch assay, 8 h exposure: 8 h exposure then 88 h without, read at 96 h; for Migration of dermal fibroblasts in scratch assay, 96 h exposure: continuous 96 h exposure. Here is the method: Dermal fibroblasts were isolated from healthy human abdominal skin from patients undergoing corrective abdominal plastic surgery. After removal of all adipose tissue, the skin was washed in PBS and incubated overnight on dispase II (Roche, Mannheim, Germany) at 4°C. The next day, epidermis was removed and discarded and the dermis was incubated in collagenase type II (Gibco, Life Technologies, Grand Island, USA)/dispase II in Hanks balanced salt solution (HBSS) (Gibco) at 37°C for 2–3 h. Fibroblast medium consisting of DMEM (Lonza, Verviers, Belgium) containing 1% ultroserG (UG) (Biosepra, Cergy-Saint-Christopher, France) and 1% penicillin-streptomycin (P/S) (Gibco) was added and the solution was passed through an 100 μm and 40 μm cell strainer (Becton Dickinson Falcon, Erembodegem, Belgium). A single cell suspension was seeded at ± 3.5 x 10^4 cells cm^2 and further cultured in fibroblast medium. Medium was changed twice a week and cultures were passaged when 90% confluent using 0.5mM EDTA/0.05% trypsin (Gibco). The cells were maintained at 37°C in a humidified atmosphere containing 5% CO2 and used for experiments at passage 3.
A wound healing scratch assay was performed to determine the effect of histatins, rhIL-6 and rhCXCL8 on fibroblast migration. Confluent monolayers of fibroblasts in a 48-well plate (Costar, Corning Incorporated, New York, USA) were incubated with serum-free medium (DMEM containing 1% P/S and 0.1% bovine serum albumin (Sigma-Aldrich)) for 96 h to ensure minimum spontaneous migration. Next, a scratch was drawn with a disposable plastic pipette tip. Cultures were exposed to Hst1, cHst1, Hst2 and mad-Hst1 (all used at a concentration of 5μM), rhIL-6 (125 ng/ml), rhCXCL8 (250 ng/ml) and vehicle (H2O) in serum free medium. Two experimental set-ups were studied: i) cells were exposed only during the first 8 h to histatins and cytokines and then transferred to vehicle supplemented medium for an additional 88 h; or ii) cells were exposed to histatins and cytokines during the entire 96 h study period. Phase contrast micrographs were taken directly after drawing the scratch and after four days (96 h) of exposure. Data were analyzed using an image processing algorithm that has been described in detail in our previous work. The area of the scratch covered by migrating fibroblasts was determined using the following equation: (E0-E96)/(U0-U96), in which: E = exposure to a condition (IL-6, CXCL8 and histatins); U = unexposed (serum-free medium); E0 and U0 = area of the scratch at T = 0 h; E96 and U96 = area of the scratch (not covered with cells) after 96 h. In this way, in each exposed group (IL-6, CXCL8, histatins) the resurfaced area at 96 h is compared to its own 0 h time point and then set relative to the unexposed group (serum-free medium).

Where [1] appears, read: experiment 1, average of four replicates.
[2] abbreviates: experiment 2, average of four replicates.
Where [3] appears, read: experiment 3, average of four replicates.

As for “cyclo(DNLPETGGDSHEKRHHGYRRKFHEKHHSHREFPFYGDYGSNYLY) [cHst1]”, the “Migration of dermal fibroblasts in scratch assay, 8 h exposure” value (“Migration … 8 h exposure” for short) under setting [1] came out at 1.6; the “Migration … 8 h exposure” value under setting [2] is 1.24; the “Migration … 8 h exposure” value under setting [3] worked out at 1.53. Further, the “Migration of dermal fibroblasts in scratch assay, 96 h exposure” value was determined as 1.46 under setting [1], 1.26 under setting [2] and 1.33 under setting [3].
